Our source for the TGI values is PubChem BioAssay (NCI).

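These data come from cells grown in 96-well plates and exposed to compound for 48 hours at five concentrations. TGI is the concentration that stops growth completely.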

The subject of the first test is A549 NSCLC. The test can be described thus: NCI anticancer screen, dose series, 48 h.
`CC1(C)OCN(c2ccc(N3CCOCC3)cc2)Cn2c1nc1ccccc12` came in with a TGI of over 100 µM.
On the same count and under the same terms, the same measure for `Cc1cc(C)c2c(=O)cc(-c3cccc4ccccc34)[nH]c2n1`: over 100 µM; for `COc1ccc2nc(N/N=C/c3sccc3C)cc(C)c2c1`: 56.9 µM.
Still for that read-out and setting: to `C=C(C)C1CCC(C(=O)O)CC1` (configuration not stated) belongs over 100 µM.
The same measure, in the same setting: to `O=c1[nH]c2cc(C(F)(F)F)ccc2nc1C(F)(F)F` belongs over 100 µM; to `Cc1ccc(C(=O)N/N=C(\N=Nc2cccc([N+](=O)[O-])c2)c2ccc(N(CCC#N)CCC#N)cc2C)cc1`, over 100 µM; to `O=C1/C(=C\c2ccc([N+](=O)[O-])cc2)N(S(=O)(=O)c2ccccc2)c2ncccc21`, over 100 µM.
Take `O=C(O)c1c2c(cc3c1CC(Cc1ccccc1)C3=O)CCC2` (configuration not stated): the TGI was 38 µM.
On the same count and under the same terms, to `OC(CC1CCCCN1)c1ccc2c(c1)oc1ccccc12` (configuration not stated) belongs over 100 µM.
On the same count and under the same terms, the same measure for `C=CC[C@]1(/C=N/O)CN(S(=O)(=O)CC[Si](C)(C)C)C[C@H]2CC=CC[C@H]21`: 30.7 µM; for `Nc1cc([N+](=O)[O-])ccc1C(=O)N1CCC[C@H]1CO`: over 100 µM.
Still for that read-out and setting: the same measure for `O=C1OC(CCCN2CCCCC2)(c2ccccc2)CC12CCCC2` (configuration not stated): over 100 µM; for `NC(=Nc1ccccc1Cl)c1ccccc1N`: over 100 µM; for `O=C1NC(=S)N/C1=C\c1cccs1`: over 100 µM.
With `CCN1C[C@]2(C)CC[C@H](O)C34C1C(C[C@@H]32)[C@@]1(O)CC[C@H]2C[C@@H]4[C@@H]1[C@H]2O`, the TGI was over 100 µM.
Same read-out and setting: the same measure for `CSc1c(C(=O)Nc2ccccc2)c(N)n(N)c(=O)c1C#N`: over 100 µM; for `COC(=O)C1=C(OC(=O)/C(=C/c2ccccc2)c2ccc(Cl)cc2Cl)C(C(=O)OC)[C@@]2(O)[C@@H](C(=O)OC)[C@H](C)C[C@@H]1[C@@H]2C(=O)OC` (some centres not stated): over 100 µM.
The same measure, in the same setting: to `C[C@@H](C(=O)O)N1C(c2ccco2)=C(/C(C=O)=C\c2ccco2)C(=O)/C1=C\c1ccco1` belongs over 100 µM; to `O=C(/C=C/c1ccc(O)c(O)c1)OCC(OC(=O)/C=C/c1ccc(O)c(O)c1)C(=O)O` (configuration not stated), over 100 µM; to `Cc1cc(C)nc(NS(=O)(=O)c2ccc(Nc3c4ccccc4nc4ccc(C(=O)Nc5ccc(S(N)(=O)=O)cc5)cc34)cc2)n1`, over 100 µM.
Take `CCOC(=O)/C=C(\C(=O)OCC)n1cc(C)c(=O)n(Cc2cn(CCCCOC(C)=O)nn2)c1=O`: the TGI came out at 36.1 µM.
Same read-out and setting: to `O=C1C2=Cc3ccccc3OC2(O)Oc2cc3ccccc3cc21` (configuration not stated) belongs over 100 µM; to `CC1(c2cccc(C3CC4(CCC3=O)OCCCCO4)c2)OCCO1` (configuration not stated), over 100 µM.

The test system of the next test is BT-549 breast. Kind of test: NCI anticancer screen, dose series, 48 h.
For `Cc1cc(C)c2c(=O)cc(-c3cccc4ccccc34)[nH]c2n1`, the TGI was over 100 µM.
Turning to `COc1ccc2nc(N/N=C/c3sccc3C)cc(C)c2c1`, the TGI stood at 32.2 µM.
Still for that read-out and setting: to `C=C(C)C1CCC(C(=O)O)CC1` (configuration not stated) belongs over 100 µM; to `O=c1[nH]c2cc(C(F)(F)F)ccc2nc1C(F)(F)F`, over 100 µM; to `Cc1ccc(C(=O)N/N=C(\N=Nc2cccc([N+](=O)[O-])c2)c2ccc(N(CCC#N)CCC#N)cc2C)cc1`, over 78.5 µM.
Same read-out and setting: to `O=C1/C(=C\c2ccc([N+](=O)[O-])cc2)N(S(=O)(=O)c2ccccc2)c2ncccc21` belongs 32.7 µM.
Same read-out and setting: the same measure for `O=C(O)c1c2c(cc3c1CC(Cc1ccccc1)C3=O)CCC2` (configuration not stated): over 100 µM; for `OC(CC1CCCCN1)c1ccc2c(c1)oc1ccccc12` (configuration not stated): over 100 µM; for `C=CC[C@]1(/C=N/O)CN(S(=O)(=O)CC[Si](C)(C)C)C[C@H]2CC=CC[C@H]21`: 80.7 µM.
Turning to `Nc1cc([N+](=O)[O-])ccc1C(=O)N1CCC[C@H]1CO`, the TGI is over 100 µM.
`O=C1OC(CCCN2CCCCC2)(c2ccccc2)CC12CCCC2` (configuration not stated): the TGI was over 100 µM.
On the same count and under the same terms, to `NC(=Nc1ccccc1Cl)c1ccccc1N` belongs over 100 µM.
Same read-out and setting: the same measure for `O=C1NC(=S)N/C1=C\c1cccs1`: over 100 µM.
Still for that read-out and setting: the same measure for `CSc1c(C(=O)Nc2ccccc2)c(N)n(N)c(=O)c1C#N`: over 100 µM.
Consider `COC(=O)C1=C(OC(=O)/C(=C/c2ccccc2)c2ccc(Cl)cc2Cl)C(C(=O)OC)[C@@]2(O)[C@@H](C(=O)OC)[C@H](C)C[C@@H]1[C@@H]2C(=O)OC` (some centres not stated), for which the TGI was over 100 µM.
Still for that read-out and setting: to `C[C@@H](C(=O)O)N1C(c2ccco2)=C(/C(C=O)=C\c2ccco2)C(=O)/C1=C\c1ccco1` belongs over 100 µM.
On the same count and under the same terms, to `O=C(/C=C/c1ccc(O)c(O)c1)OCC(OC(=O)/C=C/c1ccc(O)c(O)c1)C(=O)O` (configuration not stated) belongs over 100 µM.
`Cc1cc(C)nc(NS(=O)(=O)c2ccc(Nc3c4ccccc4nc4ccc(C(=O)Nc5ccc(S(N)(=O)=O)cc5)cc34)cc2)n1` yielded a TGI of 73.5 µM.
On the same count and under the same terms, to `CCOC(=O)/C=C(\C(=O)OCC)n1cc(C)c(=O)n(Cc2cn(CCCCOC(C)=O)nn2)c1=O` belongs 23.1 µM.
The same measure, in the same setting: to `O=C1C2=Cc3ccccc3OC2(O)Oc2cc3ccccc3cc21` (configuration not stated) belongs over 100 µM.

Another test concerns CCRF-CEM leukemia. The test can be described thus: NCI anticancer screen, dose series, 48 h.
Take `CC1(C)OCN(c2ccc(N3CCOCC3)cc2)Cn2c1nc1ccccc12`: the TGI was over 100 µM.
On the same count and under the same terms, to `Cc1cc(C)c2c(=O)cc(-c3cccc4ccccc34)[nH]c2n1` belongs over 100 µM; to `COc1ccc2nc(N/N=C/c3sccc3C)cc(C)c2c1`, 67 µM.
On the same count and under the same terms, the same measure for `C=C(C)C1CCC(C(=O)O)CC1` (configuration not stated): over 100 µM.
With `O=c1[nH]c2cc(C(F)(F)F)ccc2nc1C(F)(F)F`, the TGI was over 100 µM.
Same read-out and setting: to `Cc1ccc(C(=O)N/N=C(\N=Nc2cccc([N+](=O)[O-])c2)c2ccc(N(CCC#N)CCC#N)cc2C)cc1` belongs over 69.2 µM; to `O=C1/C(=C\c2ccc([N+](=O)[O-])cc2)N(S(=O)(=O)c2ccccc2)c2ncccc21`, over 100 µM; to `O=C(O)c1c2c(cc3c1CC(Cc1ccccc1)C3=O)CCC2` (configuration not stated), over 100 µM.
The same measure, in the same setting: to `OC(CC1CCCCN1)c1ccc2c(c1)oc1ccccc12` (configuration not stated) belongs over 100 µM; to `C=CC[C@]1(/C=N/O)CN(S(=O)(=O)CC[Si](C)(C)C)C[C@H]2CC=CC[C@H]21`, 40.7 µM; to `Nc1cc([N+](=O)[O-])ccc1C(=O)N1CCC[C@H]1CO`, over 100 µM.
In turn, `O=C1OC(CCCN2CCCCC2)(c2ccccc2)CC12CCCC2` (configuration not stated) yielded a TGI of over 100 µM.
Same read-out and setting: to `NC(=Nc1ccccc1Cl)c1ccccc1N` belongs over 100 µM.
The same measure, in the same setting: the same measure for `O=C1NC(=S)N/C1=C\c1cccs1`: over 100 µM; for `CCN1C[C@]2(C)CC[C@H](O)C34C1C(C[C@@H]32)[C@@]1(O)CC[C@H]2C[C@@H]4[C@@H]1[C@H]2O`: over 100 µM.
With `CSc1c(C(=O)Nc2ccccc2)c(N)n(N)c(=O)c1C#N`, the TGI is over 100 µM.
On the same count and under the same terms, to `COC(=O)C1=C(OC(=O)/C(=C/c2ccccc2)c2ccc(Cl)cc2Cl)C(C(=O)OC)[C@@]2(O)[C@@H](C(=O)OC)[C@H](C)C[C@@H]1[C@@H]2C(=O)OC` (some centres not stated) belongs over 100 µM.
The same measure, in the same setting: to `C[C@@H](C(=O)O)N1C(c2ccco2)=C(/C(C=O)=C\c2ccco2)C(=O)/C1=C\c1ccco1` belongs over 100 µM; to `O=C(/C=C/c1ccc(O)c(O)c1)OCC(OC(=O)/C=C/c1ccc(O)c(O)c1)C(=O)O` (configuration not stated), over 100 µM; to `Cc1cc(C)nc(NS(=O)(=O)c2ccc(Nc3c4ccccc4nc4ccc(C(=O)Nc5ccc(S(N)(=O)=O)cc5)cc34)cc2)n1`, over 100 µM.
Same read-out and setting: the same measure for `CCOC(=O)/C=C(\C(=O)OCC)n1cc(C)c(=O)n(Cc2cn(CCCCOC(C)=O)nn2)c1=O`: 5.58 µM; for `O=C1C2=Cc3ccccc3OC2(O)Oc2cc3ccccc3cc21` (configuration not stated): over 100 µM.
With `CC1(c2cccc(C3CC4(CCC3=O)OCCCCO4)c2)OCCO1` (configuration not stated), the TGI is over 100 µM.

A further test deals with DU-145 prostate. Kind of test: NCI anticancer screen, dose series, 48 h.
The compound `Cc1cc(C)c2c(=O)cc(-c3cccc4ccccc34)[nH]c2n1` yielded a TGI of over 100 µM.
